In brackets after ≈: the same amount, converted by molar mass.
Legend:
[1] = test system: fatty acid biosensor plasmids pLR-rfp and pAR-rfp in fadE knockout DH1 E. coli cells; assay: microbe, parasite or virus in culture; type: cell-based
[2] = test system: fatty acid biosensor plasmids in DH1 fadD knockout strain; type: cell-based, E. coli; conditions: up to the addition of 1 mM oleic acid
[3] = test system: fatty acid sensing strain (pBARk-RFP and pE8a-fadR in E. coli); assay: Fatty acid biosensor pBARk-RFP with pE8a-fadR, oleic acid added to growth media (Example 3); type: cell-based; conditions: plasmid pBARk-RFP, over a broad range of oleic acid concentration, 12 hours
[4] = molecular target: FadR (Escherichia coli, UniProt P0A8V6); conditions: read-out: Kd of FadR binding to oleic acid; cited from earlier work
[5] = test system: E. coli fadBA promoter (PfadBA); conditions: upon the addition of 5 mM oleic acid; cited from earlier work
[6] = cited from earlier work
[7] = molecular target: HucR; conditions: read-out: Kd (apparent), one value printed for the listed ligands; cited from earlier work

FadR, sequence (P0A8V6 whole entry): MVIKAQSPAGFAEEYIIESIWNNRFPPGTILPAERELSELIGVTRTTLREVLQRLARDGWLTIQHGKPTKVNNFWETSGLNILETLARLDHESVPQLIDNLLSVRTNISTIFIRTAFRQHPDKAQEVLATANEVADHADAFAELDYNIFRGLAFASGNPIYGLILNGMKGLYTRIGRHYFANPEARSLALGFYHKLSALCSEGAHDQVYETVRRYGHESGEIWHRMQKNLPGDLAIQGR

| SMILES | EC50 ([1]; Escherichia coli, 12 h, read-out: apparent half maximal effective concentration (EC50)) | fluorescence change upon the addition of oleic acid ([1]; pAR-rfp, fadE knockout DH1 E. coli) | induction of RFP expression [2] | increase in fluorescence signal [3] | Kd [4] | increased expression level of PfadBA [5] | solubility limit in aqueous solution [6] | Kd [7] |
| --- | --- | --- | --- | --- | --- | --- | --- | --- |
| CCCCCCCC/C=C\CCCCCCCC(=O)O [oleic acid] | 35 to 60 µM | 60 fold | no induction of RFP expression was detected | more than 50 fold | 5 µM | 5 fold | 5 mM (≈ 1410 µg/mL) | – |
| O=C(O)c1ccccc1O [salicylate] | – | – | – | – | – | – | – | 11.6 µM |
| O=c1[nH]c(=O)c2[nH]c(=O)[nH]c2[nH]1 [uric acid] | – | – | – | – | – | – | – | 11.6 µM |

Reference: patent publication US20130059295A1 (priority 2011, published 2013)
